Patent US12516058B2, “Small-molecule compounds for controlling endosomal toll-like receptors and therapeutic agent for autoimmune diseases using same” (priority 2020, dated 2026)
“Also recorded” adds a separate entry of the source.

Biological target: T1, TLR3 (Mus musculus, UniProt Q99MB1)
T1 construct: RAW 264.7 cells were pretreated with each candidate compound for 1 hour; endogenous in cells; host or cells: RAW 264.7
T1 sequence (Q99MB1 26-905): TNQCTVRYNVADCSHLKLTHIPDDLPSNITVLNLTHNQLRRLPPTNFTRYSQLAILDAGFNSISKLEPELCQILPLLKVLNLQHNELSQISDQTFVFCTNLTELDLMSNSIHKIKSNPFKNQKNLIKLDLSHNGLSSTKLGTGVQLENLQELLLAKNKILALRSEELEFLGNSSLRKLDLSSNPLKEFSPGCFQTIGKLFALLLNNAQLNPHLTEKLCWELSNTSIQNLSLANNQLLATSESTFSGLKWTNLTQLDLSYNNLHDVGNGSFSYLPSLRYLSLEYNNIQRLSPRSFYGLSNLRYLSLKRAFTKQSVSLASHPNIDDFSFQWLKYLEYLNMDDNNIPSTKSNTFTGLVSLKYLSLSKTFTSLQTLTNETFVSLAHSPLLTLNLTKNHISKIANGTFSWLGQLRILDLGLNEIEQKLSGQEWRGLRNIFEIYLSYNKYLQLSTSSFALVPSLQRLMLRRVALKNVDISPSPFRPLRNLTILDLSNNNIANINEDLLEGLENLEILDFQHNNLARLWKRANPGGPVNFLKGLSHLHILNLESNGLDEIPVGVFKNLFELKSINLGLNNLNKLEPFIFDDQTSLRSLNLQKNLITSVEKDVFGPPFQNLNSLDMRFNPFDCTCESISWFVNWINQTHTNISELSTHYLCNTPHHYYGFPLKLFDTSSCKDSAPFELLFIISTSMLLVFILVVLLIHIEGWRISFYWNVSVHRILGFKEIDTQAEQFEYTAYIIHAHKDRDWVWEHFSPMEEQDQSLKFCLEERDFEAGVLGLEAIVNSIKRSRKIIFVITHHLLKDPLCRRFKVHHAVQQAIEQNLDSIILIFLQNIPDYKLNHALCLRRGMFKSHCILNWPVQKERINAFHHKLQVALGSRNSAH
Assay: TNF-α secretion ELISA after TLR3 agonist poly I:C in RAW 264.7 cells
Format: cell-based
Settings: for inhibitory activity against endosomal TLR3 (TNF-α secretion): SK41, SK50, SK58, SK64, poly I:C; for inhibition of the function of endosomal TLR3: SK01, SK16, RAW 264.7 cells, poly I:C 24 h
Experimental: In order to determine the inhibitory activities of the test-ligand, RAW 264.7 cells were pretreated with each candidate compound for 1 hour, then treated with Pam3CSK4 (synthetic triacyl lipopeptide; TLR1/2, Invitrogen), FSL-1 (synthetic diacyl lipoprotein, TLR2/6, 100 ng/ml), lipopolysaccharide (LPS, TLR4, Sigma Aldrich), imiquimod (IMQ, TLR7, Invitrogen), and ODN2395 (type C CpG repeat motif DNA oligo(5′-[…]-3), TLR9, Bioneer) ligand for 4 hours, and treated with poly I:C (I:C repeat motif double-stranded RNA, TLR3, Invitrogen) and TL8-506 (TLR8, Invitrogen) showing delayed reactivity for 24 hours. After activation of TLR, the supernatant was diluted in an appropriate ratio so as to measure within the standard dose range, transferred to a pre-coated 96-well assay plate, and then treated with mouse TNF-alpha secretion level in accordance with the manufacturer's instructions using a mouse-TNF-alpha ELISA-kit (Invitrogen).
In order to determine the inhibitory activities of SK41, SK50, SK58 and SK64 on various TLR signaling pathways, RAW 264.7 cells were cultured along with each compound and then stimulated with different TLR agonists. The TLR agonists used herein were Pam3CSK4 (TLR1/2), FSL-1 (TLR2/6), LPS (TLR4) and FLA-ST (TLR5) as cell surface TLRs, and poly I:C (TLR3) and TL8-506 (TLR8) as endosomal TLRs.

SMILES | inhibitory activity against endosomal TLR3 (TNF-α secretion) | inhibition of the function of endosomal TLR3
COC(=O)c1ccc2c(c1)c1c(N)c3c(nc1n2CCCN(C)C)CCCC3 [SK64, Methyl 11-amino-6-(3-(dimethylamino)propyl)-2,3,4,6-tetrahydro-1H-indolo[2,3-b]quinolin-9-carboxylate] | strong inhibitory activity; also recorded: specific inhibitory activities | –
Cc1c(C)n(CCN(C)C)c2nc3c(c(N)c12)CCCCC3 [SK01, 1-(2-(dimethylamino)ethyl)-2,3-dimethyl-1,5,6,7,8,9-hexahydrocyclohepta[b]pyrrolo[3,2-e]pyridin-4-amine] | – | specifically inhibit
Cc1ccc2c(c1)c1c(N)c3c(nc1n2CCCN(C)C)CCCC3 [SK58, 6-(3-(dimethylamino)propyl)-9-methyl-2,3,4,6-tetrahydro-1H-indolo[2,3-b]quinolin-11-amine] | strong inhibitory activity; also recorded: specific inhibitory activities | –
Cc1c(C)n(CCCN(C)C)c2nc3c(c(N)c12)CCCCC3 [SK16, 1-(3-(dimethylamino)propyl)-2,3-dimethyl-1,5,6,7,8,9-hexahydrocyclohepta[b]pyrrolo[3,2-e]pyridin-4-amine] | – | specifically inhibit
Cc1cc2c(N)c3c(nc2n1CCCN(C)C)CCCCCC3 [SK41, 1-(3-(dimethylamino)propyl)-2-methyl-5,6,7,8,9,10-hexahydro-1H-cycloocta[b]pyrrolo[3,2-e]pyridin-4-amine] | strong inhibitory activity; also recorded: specific inhibitory activities | –
COc1ccc2c(c1)c1c(N)c3c(nc1n2CCCN(C)C)CCCC3 [SK50, 6-(3-(dimethylamino)propyl)-9-methoxy-2,3,4,6-tetrahydro-1H-indolo[2,3-b]quinolin-11-amine] | strong inhibitory activity; also recorded: specific inhibitory activities | –
